Values joined by “and” are separate entries in the source; they are usually repeats but may differ in a detail not shown here. Equal entries are not always repeated. Where two headings read alike, the source gives them in different places.
What was measured:
[1] = test system: C. parvum (University of Arizona Iowa isolate); type: in vivo, C57BL/6 IFN-γ−/− mice
Protocol: Interferon gamma (IFN-γ) knockout mice were used to model acute Cryptosporidium infection. All IFN-γ knockout mouse studies were performed in compliance with animal care guidelines and were approved by the Explora BioLabs (San Diego, CA) Institutional Animal Care and Use Committee. Four-week-old female C57BL/6 IFN-γ^−/− mice with normal flora were purchased from The Jackson laboratory and acclimated for 3 days prior to infection by oral gavage with ∼10^6 C. parvum Iowa isolate oocysts (Sterling Laboratory, University of Arizona) suspended in sterile distilled water. At the indicated times following infection, mice were treated with compound vehicle alone, clofazimine (positive control), or once daily AN7973 at the indicated doses. Fecal parasite shedding was measured by isolating oocysts using sucrose gradient centrifugation. Sheather’s sucrose solution was freshly prepared by dissolving 156.25 g sucrose and 2.5 mL phenol in 100 mL water. Two sucrose solutions were prepared: (A) specific gravity of 1.103 (33% Sheather’s and 0.1% Tween 80 in PBS) and (B) specific gravity of 1.064 (20% Sheather’s and 0.1% Tween 80 in PBS). In a 2 mL microfuge tube, a gradient was prepared by laying 0.75 mL of solution A, then carefully laying 0.75 mL of solution B, slowly as to prevent mixing of the two layers. Fecal pellets were removed from storage, and homogenized by vortexing and pipetting. 0.2 mL fecal homogenate was overlaid on top of gradient in each microfuge tube. Oocysts were floated from feces by centrifugation at 1000 × g for 20 min and collected with a pipet tip from the 1.064/1.103 specific gravity interface between solutions A and B. Oocysts were rinsed once in cold PBS, pelleted by centrifugation at 15,000 × g for 10 min, and resuspended in PBS. Isolated oocysts were then stained with a fluorescein isothiocyanate-conjugated mouse anti-Cryptosporidium antibody (Bio-Rad catalog# 2402-3007 F; 0.25 µg per sample) and quantified using a Guava EasyCyte flow cytometer and CytoSoft data acquisition software (version 5.3; Guava Technologies, Inc.). Oocysts per milliliter of sample were normalized to counts per milligram of feces.

[2] = test system: C. parvum (Bunch Grass Farms Iowa isolate); parameters: method as in PMID 29339392; details: cited from earlier work

SMILES: CC(C)/N=c1\cc2n(-c3ccc(Cl)cc3)c3ccccc3nc-2cc1Nc1ccc(Cl)cc1 [Clofazimine, clofazimine, reference compound]
- fecal oocyst shedding, individual mice ([1]; 10 mg/kg QD from day 4, day p.i. 14): 15 (2×) and 18 and 16
- fecal oocyst shedding, individual mice ([1]; 25 mg/kg QD from day 4, day p.i. 8): 10 and 8 (2×) and 9
- efficacy against Cryptosporidium in the NSG mouse [2]: lacks efficacy
